# Assays:
# [1] = target: T1, specific uterine reception of progesterone (progesterone receptor, uterus cytosol) (Oryctolagus cuniculus, UniProt P06186); test: Progestomimetic activity: hormonal receptor method, displacement of tritiated 17,21-dimethyl-19-nor-Δ4,9-pregnadiene-3,20-dione in uterus cytosol; type: binding, rabbit; conditions: for affinity for uterine progesterone receptor compared with progesterone (in words): conclusion from Table VI; for ARL (relative affinity of the test product): progesterone = 100, from CP and CX (concentrations inhibiting by 50% the fixation of tritiated product R), immature rabbit uterus cytosol, 0° C., 2 hours
# T1 construct: the uterus was removed and homogenized in a buffered solution; from tissue; host or cells: uterus cytosol (105,000 g supernatant) of estradiol-primed immature rabbits
# T1 sequence (P06186 1-930): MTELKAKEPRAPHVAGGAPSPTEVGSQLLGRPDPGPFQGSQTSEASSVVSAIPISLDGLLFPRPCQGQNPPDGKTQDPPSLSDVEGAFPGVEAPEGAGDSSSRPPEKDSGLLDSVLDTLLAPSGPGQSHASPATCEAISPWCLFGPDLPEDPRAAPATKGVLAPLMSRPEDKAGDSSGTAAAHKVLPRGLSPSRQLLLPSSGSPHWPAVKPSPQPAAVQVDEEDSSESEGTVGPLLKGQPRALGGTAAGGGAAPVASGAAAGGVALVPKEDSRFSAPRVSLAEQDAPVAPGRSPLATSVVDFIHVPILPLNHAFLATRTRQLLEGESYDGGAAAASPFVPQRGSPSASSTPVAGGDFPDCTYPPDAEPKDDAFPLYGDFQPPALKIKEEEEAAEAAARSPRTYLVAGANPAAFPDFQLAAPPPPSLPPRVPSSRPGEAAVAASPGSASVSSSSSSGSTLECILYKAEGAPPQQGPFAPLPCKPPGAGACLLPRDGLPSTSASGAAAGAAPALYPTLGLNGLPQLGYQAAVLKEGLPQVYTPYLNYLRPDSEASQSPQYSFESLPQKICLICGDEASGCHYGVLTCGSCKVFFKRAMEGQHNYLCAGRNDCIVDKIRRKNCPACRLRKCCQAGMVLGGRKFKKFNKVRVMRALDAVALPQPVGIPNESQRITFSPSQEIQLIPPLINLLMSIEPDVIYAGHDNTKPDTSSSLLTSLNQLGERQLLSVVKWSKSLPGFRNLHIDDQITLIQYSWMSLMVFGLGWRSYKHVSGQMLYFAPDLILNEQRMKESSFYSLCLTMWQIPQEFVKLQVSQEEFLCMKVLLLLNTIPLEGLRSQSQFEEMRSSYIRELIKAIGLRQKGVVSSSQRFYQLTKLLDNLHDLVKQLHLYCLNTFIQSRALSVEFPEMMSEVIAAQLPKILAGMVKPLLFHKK
# Protocol: The progestomimetic activity was determined for 11β-vinyl-17α-methyl-17β-acetyl-Δ^4,9 -estradiene-3-one [product A], 11β-vinyl-17α-acetoxy-17β-acetyl-Δ^4,9 -estradiene-3-one [product B] and 11β-vinyl-17α-ethynyl-Δ^4,9 -estradiene-17α-ol-3-one [product C] was determined by the hormonal receptor method of Raynaud et al [J. Ster. Biochem., Vol. 6 (1975), p-615-622 and Physiology and Genetics of Reproduction, part A (1975), p. 143-160]. Immature rabbits received subcutaneously 25γ of estradiol and 5 days later, the animals were sacrificed and the uterus was removed and homogenized in a buffered solution of 10 mm of tromethamine, 0.25 M of saccharose and a pH of 7.4 with hydrochloric acid. The homogenate was centrifuged at 105,000 g per hour and the surnageant or cytosol was adjusted to a dilution of 1/50 (weight/volume). […] The radioactivity of the tritiated product R was determined after 2 hours by the technique of adsorption on carbon-dextran (1.25-0.625%). The curves representing the percentage of tritiated product R as a function of the log of the concentration, of cold product R, of progesterone or the test products and the I50 straight line parallel to the axis of the abcisses and ordinates were plotted. [formula] B/T max. is the percentage of tied tritiated product R when the product is not added and B/T min. is the percentage of tied tritiated product R when the maximum amount of cold product R is added. The intersections of these I50 straight lines and the curves permit the determination of the values: CP - concentration of cold progesterone which inhibits by 50% the fixation of the tritiated product R and CX-concentration of test product which inhibits by 50% the fixation of tritiated product R. The relative affinity of the test product (ARL) was determined by the formula [formula] and the results are reported in Table VI.
# [2] = target: T2, prostatic androgenic reception of testosterone (androgen receptor, prostate cytosol) (Rattus norvegicus, UniProt P15207); test: Androgenic activity: hormonal receptor method, displacement of tritiated 17α-methyl-Δ4,9,11-estratriene-17β-ol-3-one in prostate cytosol; type: binding
# T2 construct: The prostate was recovered from male rats castrated 24 hours earlier and was homogenized; from tissue; host or cells: prostate cytosol (105,000 g supernatant) of male rats castrated 24 hours earlier
# T2 sequence (P15207 1-902): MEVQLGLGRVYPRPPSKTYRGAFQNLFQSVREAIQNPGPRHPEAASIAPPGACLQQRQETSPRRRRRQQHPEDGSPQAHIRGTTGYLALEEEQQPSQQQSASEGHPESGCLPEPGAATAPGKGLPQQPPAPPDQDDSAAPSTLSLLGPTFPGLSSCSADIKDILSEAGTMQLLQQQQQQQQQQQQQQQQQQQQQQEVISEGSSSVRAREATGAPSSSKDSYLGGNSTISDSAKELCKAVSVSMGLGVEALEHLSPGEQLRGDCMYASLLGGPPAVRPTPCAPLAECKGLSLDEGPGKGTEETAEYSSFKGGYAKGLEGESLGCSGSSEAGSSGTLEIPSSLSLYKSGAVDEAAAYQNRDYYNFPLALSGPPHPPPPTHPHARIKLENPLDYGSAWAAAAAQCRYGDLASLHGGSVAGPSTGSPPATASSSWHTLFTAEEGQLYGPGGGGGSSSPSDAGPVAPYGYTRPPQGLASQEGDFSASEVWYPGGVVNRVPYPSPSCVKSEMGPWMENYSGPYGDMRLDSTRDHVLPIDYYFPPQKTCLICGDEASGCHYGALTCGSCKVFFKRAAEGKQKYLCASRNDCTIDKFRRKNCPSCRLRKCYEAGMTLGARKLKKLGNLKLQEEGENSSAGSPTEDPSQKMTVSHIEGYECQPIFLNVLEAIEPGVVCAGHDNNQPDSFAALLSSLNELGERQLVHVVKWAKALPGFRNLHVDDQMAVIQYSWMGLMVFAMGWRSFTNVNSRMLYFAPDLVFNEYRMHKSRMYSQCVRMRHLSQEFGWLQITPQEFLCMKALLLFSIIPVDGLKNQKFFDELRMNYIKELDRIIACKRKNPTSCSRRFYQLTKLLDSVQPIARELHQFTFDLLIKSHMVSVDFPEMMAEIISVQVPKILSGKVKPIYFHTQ
# Protocol: This test also used the method of Raynaud et al discussed above. The prostate was recovered from male rats castrated 24 hours earlier and was homogenized in a buffer containing 10 mm of tromethamine and 0.25 M of saccharose and sufficient hydrochloric acid for a pH of 7.4. The homogenate was centrifuged at 105,000 g for one hour and the surnageant liquid or cytosol was adjusted to a dilution of 1/5 (weight/volume).
# The radioactivity of the tied tritiated product was determined after 2 hours by absorption technique on carbon-dextran (1.25%-0.625%). […] [formula] were ploted. B/T max. is the percentage of tied tritiated product R when the product is not added and B/T min. is the percentage of tied tritiated product R when the maximum amount of cold product R is added.
compound,measurement,setting,value
"C=C[C@H]1C[C@@]2(C)[C@@H](CC[C@]2(C)C(C)=O)[C@@H]2CCC3=CC(=O)CCC3=C21 [Product A, 11β-vinyl-17α-methyl-17β-acetyl-Δ^4,9-estradiene-3-one]",affinity for uterine progesterone receptor compared with progesterone (in words),[1],greater affinity for specific uterine reception of progesterone than progesterone
same,ARL (relative affinity of the test product),[1],160
"C=C[C@H]1C[C@@]2(C)[C@@H](CC[C@]2(OC(C)=O)C(C)=O)[C@@H]2CCC3=CC(=O)CCC3=C21 [Product B, 11β-vinyl-17α-acetoxy-17β-acetyl-Δ^4,9-estradiene-3-one]",affinity for uterine progesterone receptor compared with progesterone (in words),[1],greater affinity for specific uterine reception of progesterone than progesterone
same,ARL (relative affinity of the test product),[1],120
"C#C[C@]1(O)CC[C@H]2[C@@H]3CCC4=CC(=O)CCC4=C3[C@@H](C=C)C[C@@]21C [Product C, 11β-vinyl-17α-ethynyl-Δ^4,9-estradiene-17β-ol-3-one]",affinity for uterine progesterone receptor compared with progesterone (in words),[1],greater affinity for specific uterine reception of progesterone than progesterone
same,ARL (relative affinity of the test product),[1],150
"C=C(C)[C@H]1C[C@@]2(C)[C@@H](CC[C@]2(C)O)[C@@H]2CCC3=CC(=O)CCC3=C12 [Product D, 11β-isopropenyl-17α-methyl-Δ^4,9-estradiene-17β-ol-3-one]",affinity for prostatic androgen receptor compared with testosterone (in words),[2]; conclusion from Table VII,affinity on the order of that of testosterone
same,ARL (relative affinity of the test product),"[2]; testosterone = 100, from CT and CX (concentrations inhibiting by 50% the fixation of tritiated product R), castrated rat prostate cytosol, 0° C., 2 hours",80
